# According to PubChem BioAssay AID720588 (Broad Institute, 2013):
# Active and inactive are the calls of the source.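 Rule for the calls: active = fitted curve falls past a set limit of signal loss at no more than twice the top dose; inconclusive = flat fit between 30 and 70% signal loss, or poor fit; inactive = signal rise, flat within 30%, or crossing too high.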
# Assay: ATP-based viability loss in HEK293T cells – cell-based, CellTiter-Glo luminescence, cherry-pick, set 3, cytotoxicity control, dose response (AID 720588)
# Conditions: HEK293T viability, CellTiter-Glo ATP luminescence, 72 h; at 23.5 µM (top of the series)
row,SMILES,"activity change, negative = cytotoxicity"
1,C[C@@H]1CN([C@@H](C)CO)C(=O)c2cccc(NC(=O)Nc3cccc4ccccc34)c2O[C@@H]1CN(C)Cc1ccc(C(=O)Nc2ccccc2N)cc1,-11.5% (inactive)
2,COC(=O)C[C@@H]1CC[C@@H]2[C@H](COc3ccc(NC(=O)c4cccc(F)c4)cc3C(=O)N2C)O1,-28.5% (inactive)
3,O=S(=O)(c1ccc(F)cc1)N1C[C@H]2[C@@H](c3ccccc31)[C@H](CO)N2Cc1ccccc1Cl,-5.62% (inactive)

# Same assay, conditions: HEK293T viability, CellTiter-Glo ATP luminescence, 72 h; at 26 µM (top of the series)
row,SMILES,"activity change, negative = cytotoxicity"
1,O=C1c2ccccc2C(=O)N1CCCCNc1ccccc1,4.32% (inactive)
2,O=C(N/N=C/c1cccs1)c1n[nH]c2c1CCCC2,-10.2% (inactive)
3,CCNC(=O)c1cc2c(c(-c3cccc(-c4cccc(OC)c4)c3)n1)[C@H](CCO)N([S@@](=O)C(C)(C)C)C2,-17.3% (inactive)
4,COc1cc2c(cc1NC(=O)CN(C)Cc1ccc(OC)c(OC)c1)oc1ccccc12,-19.9% (inactive)
5,CN(C)C(=O)c1ccc(-c2ccccc2[C@@H]2[C@@H](CO)N(C(=O)C3CC3)[C@H]2C#N)cc1,13.4% (inactive)
6,C[C@@H]1CN([C@@H](C)CO)S(=O)(=O)c2ccc(C#CCN(C)C)cc2O[C@@H]1CN(C)Cc1ccncc1,52.2% (inactive)
7,COc1ccccc1/C=C1\SC(=S)N(CCC(=O)Nc2cc(C)on2)C1=O,8.14% (inactive)
8,COc1ccc(/C=N/Nc2ccc(C(=O)O)cc2)cc1Br,-6.35% (inactive)
9,CC(=O)Nc1cc(C(=O)NCc2ccco2)ccc1Sc1ccc(F)cc1,12.1% (inactive)
10,CC1(CCc2ccccc2)NC(=O)N(CC(=O)N2CC(=O)Nc3ccccc32)C1=O (stereo unspecified),-7.05% (inactive)
11,O=C1CCC2S/C(=C/Nc3ccc(C(F)(F)F)cc3)C(=O)N12 (stereo unspecified),-9.48% (inactive)
12,CC(=O)Nc1cccc(-c2ccnc3c2CC(C)(C(=O)NCc2ccc(N(C)C)cc2)O3)c1 (stereo unspecified),-10.9% (inactive)
13,COc1ccc2oc(C(=O)NCCc3ccccc3)c(C)c2c1,-22.1% (inactive)
14,COc1ccccc1-c1cn(CC[C@H]2CC[C@@H](NC(=O)C3CCCC3)[C@@H](CO)O2)nn1,0.512% (inactive)
15,C[C@@H]1CN([C@H](C)CO)C(=O)c2cc(NC(=O)CCCCCC(=O)Nc3ccccc3N)ccc2O[C@H]1CN(C)S(=O)(=O)c1ccc(Cl)cc1,-21.5% (inactive)
16,COc1ccc(Nc2oc(COc3ccccc3OC)nc2C#N)cc1,-13.8% (inactive)
17,O=C(O)c1ccc2cc(-c3ccccc3)[nH]c2c1,-28.5% (inactive)

row,SMILES,"activity change, negative = cytotoxicity"
1,Cc1cc(Br)ccc1N=C1C(=O)Nc2ccccc21,-16.9% (inactive)
2,COc1ccc(/C=C2\SC(=O)N(CCCC(=O)Nc3ccc(C(=O)O)cc3)C2=O)cc1,-14.1% (inactive)
3,CN(C)c1ccc(N=Nc2ccc(C(=O)O)cc2)cc1,-1.83% (inactive)
4,CCCCCCN(C(=O)CCCCCN1C(=O)NC(c2ccc(Cl)cc2)C(C(=O)OCc2ccccc2)=C1C)C(C(=O)NCCCC)c1ccc(OCC(=O)OC)c(C(=O)OC)c1 (stereo unspecified),-3.96% (inactive)
5,CC(C)(C)c1ccc(Oc2ccc(NC(=O)c3ccccc3C(=O)O)cn2)cc1,16.5% (inactive)
6,CC(NC(=O)c1ccco1)c1nc(-c2ccc(C(C)(C)C)cc2)no1 (stereo unspecified),-23% (inactive)
7,O=C(O)c1ccc(N/N=C/c2c(F)cccc2Cl)cc1,-29.9% (inactive)
8,O=C(/C=C/c1cc(Br)ccc1O)c1ccco1,-23.9% (inactive)
9,Cc1ccsc1C(=O)OCC(=O)NCCC1=CCCCC1,-24.7% (inactive)
10,Cc1c(CC(=O)NCCCC(=O)O)c(=O)oc2cc3c(cc12)CCC(C)(C)O3,-63.2% (inactive)
11,CN(C)c1ccc(-c2ccnc3c2CC(C)(C(=O)NCc2ccco2)O3)cc1 (stereo unspecified),-32.8% (inactive)
12,C[C@@H]1CN([C@H](C)CO)C(=O)CCCn2nncc2CO[C@H]1CN(C)Cc1ccc(Oc2ccccc2)cc1,-3.49% (inactive)
13,CCc1c(C(=O)NN2C(=O)C3CCCCC3C2=O)csc1C (stereo unspecified),-15.1% (inactive)
14,N#C[C@H]1[C@H](c2ccc(-c3ccccc3F)cc2)[C@@H](CO)N1C(=O)c1ccccn1,-19.7% (inactive)
15,COc1ccc(NC(=O)N(C)[C@H]2C[C@H]3c4[nH]c5ccccc5c4CCN3C(=O)[C@H]2CO)cc1,-20.7% (inactive)
16,C[C@@H]1CN([C@@H](C)CO)C(=O)c2cccc(NC(=O)CCCCCC(=O)Nc3ccccc3N)c2O[C@@H]1CN(C)Cc1ccc(Oc2ccccc2)cc1,-1.35% (inactive)
